Measured values published in ChEMBL document CHEMBL1201862, “PubChem BioAssay data set” (2004).
Activity calls are given as the source filed them.

How the values were obtained:
Cysteine protease ATG4B = Cysteine protease ATG4B (Homo sapiens, UniProt Q9Y4P1); type: functional;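 note: Fluorescence-based dose-response confirmation assay measuring inhibition of ATG4B activity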
Phospholipase A2 = Phospholipase A2 (Homo sapiens, UniProt P04054); type: functional;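 note: confirmatory dose-response counterscreen on phospholipase A2, testing hits that came from an ultra-high-throughput screen for ATG4B inhibitors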
[1] = NIH-3T3 fibroblast cytotoxicity, dose response, cytotoxicity control, cell-based, fluorescence, Alamar Blue, secondary assay (AID 2327); type: functional;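 note: NIH-3T3 mouse fibroblasts cultured with fluconazole at 8 µg/mL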
[2] = molecular target: T1, Runt-related transcription factor 1/Core-binding factor subunit beta (Homo sapiens, UniProt Q01196+Q13951); assay: inhibitors of RUNX1 Runt–CBFb-SMMHC binding, primary screen, biochemical, FRET, Cerulean-Runt, Venus-CBFb-SMMHC, uHTS (AID 1434); type: protein assay;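 note: partner is the CBFb-SMMHC leukemia fusion protein rather than wild-type CBFb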
[3] = molecular target: Transitional endoplasmic reticulum ATPase (Homo sapiens, UniProt P55072, C522A); assay: C522A mutant p97 ATPase inhibitors, dose response, counter-screen for p97 inhibitor project, biochemical, luminescence (AID 1544)
[4] = C. albicans growth with fluconazole, confirmation, fluorescence, retest (AID 2467); type: functional, cell-based
Large T antigen = Large T antigen (Simian virus 40, UniProt P03070); type: functional, Betapolyomavirus macacae;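 note: Confirmatory-stage PubChem screen for compounds that inhibit SV40 T antigen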
NS3 = NS3 (Hepatitis C virus, UniProt A3EZJ3); assay: PubChem AID 2173; set-up: species or system Hepacivirus hominis
[5] = molecular target: T1, Runt-related transcription factor 1/Core-binding factor subunit beta; assay: inhibitors of RUNX1 Runt–CBFb-SMMHC binding, biochemical, TR-FRET (AID 1438); type: protein assay
[6] = molecular target: T2, Mannose-6-phosphate isomerase (Homo sapiens, UniProt P34949); assay: inhibitors of human PMI, primary screen, biochemical, fluorescence intensity, coupled assay (AID 1209)
T2 sequence (P34949 whole entry): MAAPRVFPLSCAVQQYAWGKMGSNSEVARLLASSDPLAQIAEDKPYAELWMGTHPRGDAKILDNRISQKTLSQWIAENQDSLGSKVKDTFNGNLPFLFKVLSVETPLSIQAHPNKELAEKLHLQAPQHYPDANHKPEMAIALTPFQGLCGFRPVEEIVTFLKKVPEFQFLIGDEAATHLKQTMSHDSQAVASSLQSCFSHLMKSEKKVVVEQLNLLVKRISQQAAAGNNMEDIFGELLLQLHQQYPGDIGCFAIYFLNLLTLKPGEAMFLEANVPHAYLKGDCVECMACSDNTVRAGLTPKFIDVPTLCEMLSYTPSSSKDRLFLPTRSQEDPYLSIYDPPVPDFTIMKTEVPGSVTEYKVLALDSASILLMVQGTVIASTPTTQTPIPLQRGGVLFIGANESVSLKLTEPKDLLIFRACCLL

[7] = molecular target: T3, Induced myeloid leukemia cell differentiation protein Mcl-1 (Homo sapiens, UniProt Q07820); assay: MCL1-BIM BH3 interaction inhibitors, dose response, biochemical, fluorescence polarization, BIM-BH3 peptide, 1536-well (AID 2217)
Bcl-2-like protein 1 = Bcl-2-like protein 1 (Homo sapiens, UniProt Q07817); assay: BCL-XL inhibitors, dose response, selectivity assay for MCL1 inhibitor project, biochemical, fluorescence polarization, 1536-well (AID 2218)
[8] = molecular target: Transitional endoplasmic reticulum ATPase (Homo sapiens, UniProt P55072); assay: p97 ATPase inhibitors, dose response, biochemical (AID 1534)
[9] = molecular target: T3, Induced myeloid leukemia cell differentiation protein Mcl-1; type: functional
Exodeoxyribonuclease V = Exodeoxyribonuclease V (Escherichia coli (strain K12), UniProt P04993+P07648+P08394); assay: E. coli RecBCD inhibitors, dose response, counter-screen for AddAB inhibitor project, absorbance, V66 E. coli, mutant T4 phage (AID 492957); type: functional, cell-based, Escherichia coli str. K-12 substr. MG1655
[10] = Counterscreen for AddAB inhibitors: absorbance-based bacterial cell-based high throughput dose response assay for inhibitors of bacterial viability. [Related pubchem assays (depositor defined):AID435030, AID449728, AID449731, AID488942, AID488955, AID488956]; type: functional
[11] = Late-stage probe development counterscreen for inhibitors of the Hepatitis C Virus non-structural protein 3 helicase (NS3): luminescence-based cell-based dose response assay to determine whether compounds that inhibit replication of HCV RNA replicon are cytotoxic. [Related pubchem assays (depositor defined):AID1800, AID1830, AID1845, AID1943, AID1945, AID2172, AID2173, AID2474, AID2476]; type: functional
[12] = molecular target: T4, Low molecular weight phosphotyrosine protein phosphatase (Homo sapiens, UniProt P24666); type: functional; conditions: read-out: IC50_Mean;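 note: Dose-response confirmation assay measuring inhibition of LMPTP enzyme activity by fluorescence intensity read-out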
T4 sequence (P24666 whole entry): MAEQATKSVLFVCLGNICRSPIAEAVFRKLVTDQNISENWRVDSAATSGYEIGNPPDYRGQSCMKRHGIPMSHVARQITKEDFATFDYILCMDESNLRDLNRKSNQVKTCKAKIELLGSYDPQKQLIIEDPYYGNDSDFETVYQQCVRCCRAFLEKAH

[13] = molecular target: Voltage-gated inwardly rectifying potassium channel KCNH2 (Homo sapiens, UniProt Q12809); conditions: Potency;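 note: confirmatory quantitative high-throughput screen measuring inhibition of hERG channel activity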
[14] = molecular target: T5, Short transient receptor potential channel 4 (Mus musculus, UniProt Q9QUQ5); assay: mouse TRPC4 channel activators, dose response, cell-based, HEK293 TRPC4/mu-opioid, Fluo-4 calcium (AID 434937); type: functional
T5 sequence (Q9QUQ5 whole entry): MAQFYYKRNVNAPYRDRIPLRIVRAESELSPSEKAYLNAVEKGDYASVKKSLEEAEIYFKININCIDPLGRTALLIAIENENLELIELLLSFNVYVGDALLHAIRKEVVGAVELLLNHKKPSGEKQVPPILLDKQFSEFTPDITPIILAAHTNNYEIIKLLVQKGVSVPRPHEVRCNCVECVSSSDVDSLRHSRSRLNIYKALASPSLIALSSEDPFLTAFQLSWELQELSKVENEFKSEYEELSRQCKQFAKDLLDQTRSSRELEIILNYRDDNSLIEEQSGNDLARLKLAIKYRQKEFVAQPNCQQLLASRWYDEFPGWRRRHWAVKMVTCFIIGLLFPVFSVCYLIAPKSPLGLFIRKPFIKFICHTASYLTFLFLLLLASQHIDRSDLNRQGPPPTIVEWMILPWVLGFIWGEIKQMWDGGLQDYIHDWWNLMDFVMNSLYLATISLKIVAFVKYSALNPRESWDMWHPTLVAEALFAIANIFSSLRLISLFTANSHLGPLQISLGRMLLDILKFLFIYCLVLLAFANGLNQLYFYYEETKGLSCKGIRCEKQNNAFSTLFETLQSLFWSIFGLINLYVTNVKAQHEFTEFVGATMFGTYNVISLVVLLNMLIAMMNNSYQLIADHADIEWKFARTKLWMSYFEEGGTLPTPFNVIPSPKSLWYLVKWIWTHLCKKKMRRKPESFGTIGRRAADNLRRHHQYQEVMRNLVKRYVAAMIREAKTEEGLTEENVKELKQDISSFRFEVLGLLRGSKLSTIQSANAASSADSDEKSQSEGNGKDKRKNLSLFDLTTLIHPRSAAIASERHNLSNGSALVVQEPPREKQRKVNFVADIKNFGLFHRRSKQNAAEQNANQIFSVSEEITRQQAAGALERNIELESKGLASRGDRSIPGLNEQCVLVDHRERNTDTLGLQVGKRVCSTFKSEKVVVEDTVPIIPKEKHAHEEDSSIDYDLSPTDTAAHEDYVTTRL

[15] = molecular target: Delta-type opioid receptor (Homo sapiens, UniProt P41143); assay: Counterscreen for agonists of heterodimerization of the mu 1 (OPRM1) and delta 1 (OPRD1) opioid receptors: Luminescence-based cell-based high throughput dose response assay to identify agonists of OPRD1 homodimerization. [Related pubchem assays (depositor defined):AID504326, AID504355, AID504692, AID504904, AID504905]; type: functional
Mu-type opioid receptor = Mu-type opioid receptor (Homo sapiens, UniProt P35372); assay: Counterscreen for agonists of heterodimerization of the mu 1 (OPRM1) and delta 1 (OPRD1) opioid receptors: Luminescence-based cell-based high throughput dose response assay to identify agonists of OPRM1 homodimerization.; type: functional;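 note: U2OS cells expressing OPRM1 and beta-arrestin as split beta-galactosidase partners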
[16] = molecular target: 5-hydroxytryptamine receptor 5A (Homo sapiens, UniProt P47898); assay: Counterscreen for agonists of OPRM1-OPRD1 heterodimerization: luminescence-based cell-based high throughput dose response assay to identify agonists of 5-hydroxytryptamine (serotonin) 5A receptor (HTR5A). [Related pubchem assays (depositor defined):AID504326, AID504355, AID504692, AID504904, AID504905]; type: functional
[17] = molecular target: T5, Short transient receptor potential channel 4; assay: SAR Analysis for the identification of selective inhibits of the transient receptor potential cation channel C4 (TRPC4): Automated Electrophysiology_2. [Related pubchem assays (depositor defined):AID2256]; type: functional
[18] = molecular target: Short transient receptor potential channel 6 (Mus musculus, UniProt Q61143); assay: TRPC6 inhibition potency of TRPC4 inhibitor analogs, dose response, selectivity assay for selective TRPC4 inhibitor project, HEK293 cells, membrane potential dye, IC50 (AID 492987); type: functional, cell-based
[19] = inhibitors of firefly luciferase expression or activity, dose response, H4 neuroglioma cells, luminescence (AID 1990); type: functional, cell-based
[20] = Luminescence Cell-Based Dose Response HTS to Identify Inhibitors of 5'UTR Stem-Loop Driven Prion Protein mRNA Translation in H4 Neuroglioblastoma Cells. [Related pubchem assays: 1827 (Project Summary), 1813 (Primary HTS)]; type: functional
[21] = inhibitors of SNCA 5'UTR-driven reporter translation, confirmation, H4 neuroglioma cells, luminescence (AID 1988); type: functional, cell-based
HEK293 = assay: inhibitors of LMP1-driven NF-kB reporter, dose response, cell-based, HEK293, luciferase, cherry-pick (AID 588343); type: functional; conditions: Homo sapiens
[22] = molecular target: Luciferin 4-monooxygenase (Photuris pensylvanica, UniProt Q27757); assay: firefly luciferase enzyme inhibitors, dose response, counter-screen for HSF-1 reporter inhibitor project, biochemical, Cell Titer Glo, luminescence, cherry-picks (AID 588847)
[23] = inhibitors of HIV Env-driven cell fusion, dose response, cherry-pick (AID 652057); type: functional, cell-based
[24] = off-target signal loss in HeLa-CEM21 co-culture – HeLa F-luc CTL cells, cherry-picked, counter-screen for HIV-1 Env fusion inhibitor project, dose response (AID 652040); type: functional, cell-based;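 note: potency for signal decrease marking cytotoxic or nonspecific inhibition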
[25] = inhibitors of clade B AD8 Env fusion, dose response, cell-based, cherry-pick (AID 652062); type: functional;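 note: luciferase signal from cell-cell fusion driven by HIV-1 clade B AD8 Env; potency is for inhibitors of fusion seen as a drop in luminescence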
Phospholipase D1 = Phospholipase D1 (Homo sapiens, UniProt Q13393); assay: PLD1 inhibitor potency in cells, dose response (AID 602151); type: functional;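 note: cellular PLD1 assay in Calu-1 cells stimulated with PMA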
Phospholipase D2 = Phospholipase D2 (Homo sapiens, UniProt O14939); assay: PLD2 inhibitor potency in cells, dose response (AID 602147); type: functional;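 note: cellular assay in HEK293 cells overexpressing GFP-tagged PLD2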
HeLa = assay: HeLa cell cytotoxicity, dose response, cytotoxicity control for MITF activator project, CellTiter-Glo luminescence, cherry-pick samples (AID 540259); type: functional, cell-based; conditions: Homo sapiens
Hexokinase-1 = Hexokinase-1 (Homo sapiens, UniProt P19367); assay: HK1 enzyme inhibition by HKDC1 hits, SAR follow-up, selectivity assay for HKDC1 inhibitor project, biochemical, set 2, resazurin fluorescence coupled readout (AID 588356); type: functional
Hexokinase HKDC1 = Hexokinase HKDC1 (Homo sapiens, UniProt Q2TB90); assay: HKDC1 hexokinase inhibitors, SAR follow-up, biochemical, set 2 (AID 588355); type: functional
[26] = Luminescence Cell-Based Dose Response Follow up to Identify Inhibitors of Platelet Dense Granule Release. [Related pubchem assays (depositor defined):AID1663, AID1678, AID2398]; type: functional

T3 sequence (Q07820 whole entry): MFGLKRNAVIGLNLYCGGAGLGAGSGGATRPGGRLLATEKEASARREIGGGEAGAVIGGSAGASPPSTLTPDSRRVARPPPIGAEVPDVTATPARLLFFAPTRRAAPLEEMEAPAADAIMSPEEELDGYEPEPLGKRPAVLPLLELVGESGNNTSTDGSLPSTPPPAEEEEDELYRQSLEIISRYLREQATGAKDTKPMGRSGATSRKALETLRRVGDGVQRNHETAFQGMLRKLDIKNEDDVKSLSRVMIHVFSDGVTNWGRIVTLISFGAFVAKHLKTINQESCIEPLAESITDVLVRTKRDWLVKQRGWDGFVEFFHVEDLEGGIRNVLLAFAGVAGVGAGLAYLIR
T1 sequence (Q01196 whole entry, the tested form may be a part): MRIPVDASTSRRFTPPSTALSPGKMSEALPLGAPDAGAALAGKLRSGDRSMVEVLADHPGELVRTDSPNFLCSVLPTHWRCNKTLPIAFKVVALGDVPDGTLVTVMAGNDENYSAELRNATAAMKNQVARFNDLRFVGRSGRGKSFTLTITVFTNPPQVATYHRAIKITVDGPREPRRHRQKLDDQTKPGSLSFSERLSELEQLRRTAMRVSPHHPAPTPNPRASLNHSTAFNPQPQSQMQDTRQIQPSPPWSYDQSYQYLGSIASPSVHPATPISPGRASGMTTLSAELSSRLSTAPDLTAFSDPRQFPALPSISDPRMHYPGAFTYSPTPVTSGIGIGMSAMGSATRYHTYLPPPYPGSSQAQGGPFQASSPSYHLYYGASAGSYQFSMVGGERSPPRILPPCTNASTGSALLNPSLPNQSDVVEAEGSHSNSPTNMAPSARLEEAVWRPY
T1 sequence (Q13951 whole entry, the tested form may be a part): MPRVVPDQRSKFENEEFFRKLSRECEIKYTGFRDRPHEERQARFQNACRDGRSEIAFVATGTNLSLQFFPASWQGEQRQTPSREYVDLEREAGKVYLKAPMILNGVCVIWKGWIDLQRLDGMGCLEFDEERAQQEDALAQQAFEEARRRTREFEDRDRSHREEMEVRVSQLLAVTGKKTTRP
Sequence of NS3 (A3EZJ3 whole entry): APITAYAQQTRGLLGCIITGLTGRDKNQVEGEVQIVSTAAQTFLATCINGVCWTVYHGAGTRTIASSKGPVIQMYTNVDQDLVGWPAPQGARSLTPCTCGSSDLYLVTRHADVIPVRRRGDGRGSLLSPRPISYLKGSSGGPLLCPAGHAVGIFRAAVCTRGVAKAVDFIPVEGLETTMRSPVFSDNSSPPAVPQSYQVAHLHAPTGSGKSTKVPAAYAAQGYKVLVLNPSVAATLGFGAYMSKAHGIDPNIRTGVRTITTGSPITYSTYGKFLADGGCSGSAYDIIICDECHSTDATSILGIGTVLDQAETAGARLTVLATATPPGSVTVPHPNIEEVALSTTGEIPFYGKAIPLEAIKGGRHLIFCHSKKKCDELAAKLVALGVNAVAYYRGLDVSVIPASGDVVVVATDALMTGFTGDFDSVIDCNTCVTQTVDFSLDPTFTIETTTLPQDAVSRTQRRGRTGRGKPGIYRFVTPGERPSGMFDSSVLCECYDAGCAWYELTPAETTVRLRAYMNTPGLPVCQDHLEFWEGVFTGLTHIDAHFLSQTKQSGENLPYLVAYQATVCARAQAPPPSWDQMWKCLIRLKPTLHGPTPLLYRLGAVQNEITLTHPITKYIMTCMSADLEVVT
Sequence of Hexokinase-1 (P19367 whole entry): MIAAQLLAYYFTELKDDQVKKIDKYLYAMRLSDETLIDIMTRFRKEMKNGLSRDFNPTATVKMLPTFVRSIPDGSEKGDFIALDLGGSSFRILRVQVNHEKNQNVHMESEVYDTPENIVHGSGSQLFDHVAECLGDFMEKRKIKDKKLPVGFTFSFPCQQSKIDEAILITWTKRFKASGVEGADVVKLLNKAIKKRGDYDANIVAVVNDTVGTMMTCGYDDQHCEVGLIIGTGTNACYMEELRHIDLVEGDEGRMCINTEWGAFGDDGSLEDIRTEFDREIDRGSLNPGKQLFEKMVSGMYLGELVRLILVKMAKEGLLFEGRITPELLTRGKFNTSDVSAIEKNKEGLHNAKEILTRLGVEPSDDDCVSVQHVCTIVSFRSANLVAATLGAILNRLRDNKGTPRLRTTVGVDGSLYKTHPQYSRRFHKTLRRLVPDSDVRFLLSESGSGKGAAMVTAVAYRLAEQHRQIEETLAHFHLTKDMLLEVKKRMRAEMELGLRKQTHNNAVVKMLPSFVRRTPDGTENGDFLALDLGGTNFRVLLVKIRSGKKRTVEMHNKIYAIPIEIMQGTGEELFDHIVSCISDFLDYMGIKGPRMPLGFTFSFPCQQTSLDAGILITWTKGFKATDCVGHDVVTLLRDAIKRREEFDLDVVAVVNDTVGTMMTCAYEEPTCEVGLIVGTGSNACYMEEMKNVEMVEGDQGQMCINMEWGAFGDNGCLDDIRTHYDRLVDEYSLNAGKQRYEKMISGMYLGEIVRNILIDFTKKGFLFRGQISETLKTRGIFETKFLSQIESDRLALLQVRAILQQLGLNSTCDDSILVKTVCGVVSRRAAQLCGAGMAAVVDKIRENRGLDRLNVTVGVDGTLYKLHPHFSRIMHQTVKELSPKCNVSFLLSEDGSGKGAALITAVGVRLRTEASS
Sequence of Phospholipase D2 (O14939 whole entry): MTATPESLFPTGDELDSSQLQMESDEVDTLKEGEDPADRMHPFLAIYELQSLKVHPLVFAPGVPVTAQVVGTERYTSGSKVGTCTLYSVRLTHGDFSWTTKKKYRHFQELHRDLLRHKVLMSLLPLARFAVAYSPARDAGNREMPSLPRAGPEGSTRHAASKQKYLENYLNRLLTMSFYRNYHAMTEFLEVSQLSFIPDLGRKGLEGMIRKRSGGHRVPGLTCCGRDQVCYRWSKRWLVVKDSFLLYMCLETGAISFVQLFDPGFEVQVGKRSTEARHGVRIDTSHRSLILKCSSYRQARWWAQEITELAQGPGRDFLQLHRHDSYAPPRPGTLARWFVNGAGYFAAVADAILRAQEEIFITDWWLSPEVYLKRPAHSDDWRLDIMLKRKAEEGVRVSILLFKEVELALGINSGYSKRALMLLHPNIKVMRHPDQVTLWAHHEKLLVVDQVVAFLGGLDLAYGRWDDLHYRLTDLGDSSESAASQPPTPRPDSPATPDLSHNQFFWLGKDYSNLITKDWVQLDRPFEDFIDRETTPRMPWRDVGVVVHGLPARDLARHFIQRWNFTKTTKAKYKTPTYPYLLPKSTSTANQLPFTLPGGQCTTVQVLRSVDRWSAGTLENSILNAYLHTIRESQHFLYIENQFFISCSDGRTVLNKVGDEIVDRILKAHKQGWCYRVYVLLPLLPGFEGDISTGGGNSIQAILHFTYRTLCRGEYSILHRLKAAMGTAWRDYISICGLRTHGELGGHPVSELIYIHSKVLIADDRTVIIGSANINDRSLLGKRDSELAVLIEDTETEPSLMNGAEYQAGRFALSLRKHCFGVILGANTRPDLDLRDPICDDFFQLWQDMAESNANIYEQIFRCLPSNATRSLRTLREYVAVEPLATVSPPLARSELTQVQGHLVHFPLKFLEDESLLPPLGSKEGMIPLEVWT
Sequence of Phospholipase D1 (Q13393 whole entry): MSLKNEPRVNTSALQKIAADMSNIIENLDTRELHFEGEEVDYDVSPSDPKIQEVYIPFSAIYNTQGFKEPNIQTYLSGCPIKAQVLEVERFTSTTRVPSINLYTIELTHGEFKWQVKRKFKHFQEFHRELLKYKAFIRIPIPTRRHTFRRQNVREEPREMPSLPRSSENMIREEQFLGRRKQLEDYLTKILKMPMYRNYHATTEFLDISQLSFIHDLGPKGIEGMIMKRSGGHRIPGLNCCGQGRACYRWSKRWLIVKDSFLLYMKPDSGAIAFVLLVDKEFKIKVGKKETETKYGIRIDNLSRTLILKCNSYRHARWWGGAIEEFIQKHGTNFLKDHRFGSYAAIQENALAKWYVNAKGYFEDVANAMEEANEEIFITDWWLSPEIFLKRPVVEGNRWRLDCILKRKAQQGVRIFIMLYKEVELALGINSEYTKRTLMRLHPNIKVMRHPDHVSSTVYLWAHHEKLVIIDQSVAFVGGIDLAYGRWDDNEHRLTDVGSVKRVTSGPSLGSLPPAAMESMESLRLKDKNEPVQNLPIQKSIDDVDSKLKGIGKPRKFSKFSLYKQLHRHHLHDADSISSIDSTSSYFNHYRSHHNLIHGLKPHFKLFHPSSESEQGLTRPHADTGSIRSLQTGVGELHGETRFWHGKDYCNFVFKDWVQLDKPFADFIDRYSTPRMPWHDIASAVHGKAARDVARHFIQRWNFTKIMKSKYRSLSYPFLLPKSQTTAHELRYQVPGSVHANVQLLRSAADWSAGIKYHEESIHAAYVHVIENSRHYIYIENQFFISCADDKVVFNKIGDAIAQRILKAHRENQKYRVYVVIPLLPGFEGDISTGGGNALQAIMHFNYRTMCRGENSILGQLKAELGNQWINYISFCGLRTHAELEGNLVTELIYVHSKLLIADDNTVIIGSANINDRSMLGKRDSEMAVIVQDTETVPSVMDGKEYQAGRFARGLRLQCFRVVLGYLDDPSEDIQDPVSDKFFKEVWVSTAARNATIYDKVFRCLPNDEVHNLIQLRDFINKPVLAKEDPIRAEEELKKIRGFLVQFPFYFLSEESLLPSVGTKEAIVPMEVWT
Sequence of Bcl-2-like protein 1 (Q07817 whole entry): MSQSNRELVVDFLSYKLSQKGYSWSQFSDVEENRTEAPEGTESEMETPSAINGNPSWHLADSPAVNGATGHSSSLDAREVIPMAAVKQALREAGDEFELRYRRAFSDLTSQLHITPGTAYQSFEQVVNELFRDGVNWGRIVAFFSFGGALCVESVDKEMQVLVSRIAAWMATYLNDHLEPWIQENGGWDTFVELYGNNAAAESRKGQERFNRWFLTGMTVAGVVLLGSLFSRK
Sequence of Phospholipase A2 (P04054 whole entry): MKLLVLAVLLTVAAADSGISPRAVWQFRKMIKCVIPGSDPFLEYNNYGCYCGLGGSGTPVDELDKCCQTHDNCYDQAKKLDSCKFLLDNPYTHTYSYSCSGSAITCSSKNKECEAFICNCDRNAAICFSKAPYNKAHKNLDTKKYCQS

## O=C(O)CCn1cc(/C=C\C(=O)c2ccc(Cl)cc2)c(-c2cccc(Br)c2)n1
Cysteine protease ATG4B
  IC50: 15.7 µM (active)
Phospholipase A2
  IC50: 14.9 µM (active)

## COc1cccc(-n2c(SCc3cc(=O)oc4cc(O)c(O)cc34)nc3ccccc3c2=O)c1
[1]
  EC50: > 150 µM (inactive)
[2]
  IC50: 2 µM (active)
[3]
  IC50: > 50 µM (not active)
[4]
  EC50: > 38 µM (not active)
Large T antigen
  IC50: > 100 µM (active)
NS3
  IC50: 2.31 µM (active)
[5]
  IC50: 19.3 µM (active)
[6]
  IC50: 15.6 µM (active)
[7]
  IC50: > 109 µM (not active)
Bcl-2-like protein 1
  IC50: > 109 µM (not active)
[8]
  IC50: 21.1 µM (not active)
[9]
  IC50: 2.72 µM (active)
Exodeoxyribonuclease V
  IC50: > 119 µM (inactive)
[10]
  IC50: > 119 µM (inactive)
[11]
  CC50: > 100 µM (inactive)
[12]
  IC50: 53.1 µM (inactive)

## CCCCN1CCC(n2c(=O)[nH]c3ccccc32)CC1
[13]
  AC50: 11.2 µM (inconclusive)

## CCOC(=O)C1(CCOc2ccccc2)CCN(Cc2ccc3c(c2)OCCO3)CC1
[14]
  EC50: 1.33 µM (active)
[15]
  EC50: > 92.5 µM (inactive)
Mu-type opioid receptor
  EC50: > 92.5 µM (inactive)
[16]
  EC50: > 92.5 µM (inactive)

## CCc1ccc2nc(N3CCCCC3)cc(C)c2c1
[17]
  IC50: 3.73 µM (active)
[18]
  IC50: 15 µM (active)

## CCOc1ccc(OCc2cccc(C(=O)N/N=C/c3cccnc3)c2)cc1
[19]
  EC50: 9.06 µM (active)
[20]
  EC50: 12.8 µM (active)
[21]
  EC50: 9.36 µM (active)
HEK293
  AC50: 1.29 µM (active)
[22]
  AC50: 31.9 µM (active)
[23]
  AC50: 2.3 µM (active)
[24]
  AC50: 1.46 µM (active)
[25]
  AC50: 3.31 µM (active)

## CC(C)[C@@H](CN1CCC2(CC1)C(=O)NCN2c1ccccc1)NC(=O)c1cc2cc(F)ccc2[nH]1
Phospholipase D1
  IC50: 0.026 µM (active)
Phospholipase D2
  IC50: 0.48 µM (active)

## Cc1cccc(-c2cc(N)n(-c3ccccc3)n2)c1
HeLa
  AC50: > 350 µM (inactive)

## CCCCN1C(=O)C(NC(C)=O)c2cc(OC)ccc21 (centres undefined)
Hexokinase-1
  IC50: > 80 µM (inactive)
Hexokinase HKDC1
  IC50: > 80 µM (inactive)

## Cn1c(N)c(C#N)c(-c2ccccc2)c(C#N)c1=O
[26]
  EC50: 1.74 µM (active)
